According to patent US20230190848A1 (priority 2021, published 2023):

Assays:
[1] = system: calreticulin; assay: Calreticulin expression on infected L929 cell membrane; assay type: cell-based; details: L929 infected with MHV-A59 (FIG. 3)
Experimental: To determine if the P2Et extract of the invention can inhibit virus infection L929 cells were seeded in 12-well plates at a concentration of […] for well and cultured overnight. Cells were pretreated for 2 h with the P2Et or controls, washed twice with PBS 1× and inoculated with 200 μl of the virus suspension to 0.1, 0.01 or 0.001 MOI in DMEM, 1 h at room temperature in mechanical agitation. The virus inoculum was removed, the cells were treated again with extracts for 6, 12 and 24 h. Supernatants were collected for qPCR and plaque assays. The cells were collected for evaluation of proteins by western blot and ROS assays by flow cytometry.
Previously, we have shown that standardized P2Et extract induces immunogenic cell death (ICD), here the expression of calreticulin, a marker of ICD, was evaluated on the L929 cell membrane infected cells.

[2] = system: SARS-CoV-2 virus; details: cited from earlier work

| Molecule | expression of calreticulin induced by viral infection on L929 cell surface [1] | suppression of viral activity [2] |
| --- | --- | --- |
| CCN(CC)CCCC(C)Nc1ccnc2cc(Cl)ccc12 (stereo not shown) [chloroquine] | decreased | – |
| O=c1c(O)c(-c2ccc(O)c(O)c2)oc2cc(O)cc(O)c12 [quercetin] | decreased | – |
| CC(=O)N[C@@H](CS)C(=O)O [NAC, N-Acetylcysteine] | decreased | – |
| epigallocatechin-zinc gallate [EGCG-Zn^+2] | – | greater than 99% |
